Earlier results on six molecules are cited in patent publication US12397068B2, “Structural design of a cranial nerve degeneration contrast agent precursors” (INSTITUTE OF NUCLEAR ENERGY RESEARCH, ATOMIC ENERGY …, priority 2022, dated 2025).

Data set [1] relates to α-synuclein relative to Aβ and Tau proteins. Particulars: in vitro; in words only; background statement.
The conditions of data set [2]: in words only; background statement.
The target in data set [3] is α-synuclein fibrils (Homo sapiens, UniProt P37840). Particulars: in words only; background statement.

In the case of `O=C1Nc2ccccc2C1=Cc1ccccc1`, the “specificity for α-synuclein relative to β-amyloid (Aβ) and Tau” value in data set [1] is listed as “low specificity”.

Turning to `CN(C)c1ccc(/C=C/C=C/C2=[N+](C)C3=C(CCCC3)C2(C)C)cc1` [LDS 730], the “specificity for α-synuclein relative to β-amyloid (Aβ) and Tau” value in data set [1] was “reasonable degree in vitro specificity”. Further, in data set [2], the in vitro stability result was “low in vitro stability”.

For `CC[n+]1ccc(/C=C/C=C/c2ccc(N(C)C)cc2)c2ccccc21.[O-][Cl+3]([O-])([O-])[O-]` [LDS 798], the “affinity for α-synuclein” value in data set [3] is reported as “moderate affinity”. For the same molecule, in data set [1], the “specificity for α-synuclein relative to β-amyloid (Aβ) and Tau” value was “reasonable degree in vitro specificity”. Besides, the in vitro stability entry in data set [2] is given as “low in vitro stability”.

Consider `COc1ccc2c(c1)Sc1cc([N+](=O)[O-])ccc1N2` [SIL5], for which the “specificity for α-synuclein relative to β-amyloid (Aβ) and Tau” value in data set [1] was “reasonable degree in vitro specificity”. Besides, the in vitro stability result in data set [2] is reported as “low in vitro stability”.

As for `O=[N+]([O-])c1ccc2c(c1)Sc1cc(OC/C=C/[125I])ccc1N2` [SIL23], the “specificity for α-synuclein relative to β-amyloid (Aβ) and Tau” value in data set [1] was “reasonable degree in vitro specificity”. The in vitro stability result in data set [2] is reported as “low in vitro stability”.

For `O=[N+]([O-])c1ccc2c(c1)Sc1cc(OCCF)ccc1N2` [SIL26], in data set [1], the “specificity for α-synuclein relative to β-amyloid (Aβ) and Tau” value is reported as “reasonable degree in vitro specificity”. For the same molecule, in data set [2], the in vitro stability result was “low in vitro stability”.
